Source: patent US7915287B2, “Substituted heterocycles and methods of use” (Amgen Inc., priority 2006, dated 2011)

molecular target: T1, c-Met (Homo sapiens, UniProt P08581); experiment: c-Met receptor assay (HTRF kinase assay with GST-cMet (P), gastrin and ATP); type: biochemical; conditions: illustrative activity values
T1 construct: A PCR product covering residues 1058-1365 of c-Met (c-Met kinase domain) is generated; made in house; host or cells: baculovirus-infected (insect) cells
Method: Phosphorylation of the purified GST-cMET is performed by incubating the protein for 3 h at RT with the following:
After incubation, the solution is concentrated in a Vivaspin 20 ml Concentrator to a volume less than 2.00 ml. The solution is applied to the same Superdex 75 16/60 column used above after re-equilibration. The GST-cMET is eluted as described above. The elution fractions corresponding to the first eluted peak on the chromatogram are run on a 12% Tris Glycine gel, as above, to identify the fractions with GST-cMET. Fractions are pooled and the OD280 is read with the column buffer used as the blank.
A Kinase reaction Buffer is prepared as follows:
When the assay is carried out, freshly add:
The HTRF buffer contains:
1. Dilute GST-cMet (P) enzyme in kinase buffer as follows:
2. Assay plate preparation:
Then incubate the plate at RT for 30 min.
3. Prepare Gastrin and ATP working solution in kinase reaction buffer as follows:
Use Biomek FX to add 20 μl ATP and Gastrin working solution to the assay plate to start reaction, incubate the plate at RT for 1 h.
KM ATP, KM gastrin for various enzymes were determined by HTRF/^33P labeling and HTRF methods.
Cloning, Expression and Purification of c-Met Kinase Domain
Alternative Purification of Human GST-cMET from Baculovirus Cells
The resin is washed with 10 column volumes (100 mL) of Lysis Buffer. […] The elution is collected as 15 mL fractions. Aliquots of the elution fractions are run on SDS PAGE (12% Tris Glycine gel, Invitrogen, #EC6005BOX). The gel is stained with 0.25% Coomassie Blue stain. Fractions with GST-cMET are concentrated with a Vivaspin 20 mL Concentrator (#VS2002; 10.00 MW cutoff) to a final volume less than 2.0 ml. […] The GST-cMET is eluted with an isocratic run of the above buffer, with the eluent collected in 1.0 mL fractions. Fractions with significant OD280 readings are run on another 12% Tris Glycine gel. The peak tubes with GST-cMET are pooled and the OD280 is read with the column buffer listed above as the blank buffer. […]

T1 sequence (P08581 1058-1365): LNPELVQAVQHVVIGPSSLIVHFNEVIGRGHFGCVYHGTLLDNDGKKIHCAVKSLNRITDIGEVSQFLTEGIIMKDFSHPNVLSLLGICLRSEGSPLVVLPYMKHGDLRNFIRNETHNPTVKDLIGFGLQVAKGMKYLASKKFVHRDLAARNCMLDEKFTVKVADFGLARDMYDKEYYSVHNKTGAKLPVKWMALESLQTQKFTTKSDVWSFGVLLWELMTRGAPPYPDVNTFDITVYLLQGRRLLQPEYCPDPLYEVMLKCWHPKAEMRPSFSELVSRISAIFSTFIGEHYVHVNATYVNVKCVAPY

Structure (SMILES) | Ki
COc1ccccc1NC(=O)c1cccnc1Nc1ccc(Oc2ccnc3cc(OCc4ccccc4)c(OC)cc23)c(F)c1 [Example 10, 2-(4-(7-(benzyloxy)-6-methoxyquinolin-4-yloxy)-3-fluorophenylamino)-N-(2-methoxyphenyl)nicotinamide] | 40.5 nM
COc1ccc2c(Oc3ccc(Nc4ncc(-c5ccsc5)cc4C(=O)Nc4ccccc4)cc3F)ccnc2c1 [Example 4, 2-(3-fluoro-4-(7-methoxyquinolin-4-yloxy)phenylamino)-N-phenyl-5-(thiophen-3-yl)nicotinamide] | 4.7 nM
Cc1cnc(Nc2ccc(Oc3ccnc(NC(=O)N4CCOCC4)c3)c(F)c2)c(C(=O)Nc2ccccc2)c1 [Example 1, N-(4-(2-fluoro-4-(5-methyl-3-(phenylcarbamoyl)pyridin-2-ylamino)phenoxy)pyridin-2-yl)morpholine-4-carboxamide] | 1.7 nM
O=C(Nc1ccccc1)c1cccnc1Nc1ccc(Oc2ccnc(NC(=O)N3CCCC3)c2)c(F)c1 [Example 5, 2-(3-fluoro-4-(2-(pyrrolidine-1-carboxamido)pyridin-4-yloxy)phenylamino)-N-phenylnicotinamide] | 0.6 nM
COc1cc2nccc(Oc3ccc(Nc4ncccc4C(=O)NC(C)c4nccs4)cc3)c2cc1OC (stereo not drawn) [Example 24, 2-(4-(6,7-dimethoxyquinoline-4-yloxy)phenylamino)-N-(1-(thiazol-2-yl)ethyl)nicotinamide] | 136 nM
COc1cc2c(Oc3ccc(Nc4ncccc4C(=O)NCc4ccccc4)cc3)ccnc2cc1OCCCN1CCOCC1 [Example 15, N-benzyl-2-(4-(6-methoxy-7-(3-morpholinopropoxy)quinolin-4-yloxy)phenylamino)nicotinamide] | 4.8 nM

Second part, the molecule after the results:

Ki | Structure (SMILES)
180 nM | COc1cc2nccc(Oc3ccc(Nc4ncccc4C(=O)NCc4nccs4)cc3)c2cc1OC [Example 27, 2-(4-(6,7-dimethoxyquinoline-4-yloxy)phenylamino)-N-(thiazol-2-ylmethyl)nicotinamide]
498 nM | CNC(=O)c1cccnc1Nc1ccc(Oc2ccnc3cc(OC)c(OC)cc23)cc1 [Example 26, 2-(4-(6,7-dimethoxyquinoline-4-yloxy)phenylamino)-N-methylnicotinamide]
576 nM | COc1cc2nccc(Oc3ccc(Nc4ncccc4C(=O)NCc4ncc[nH]4)cc3)c2cc1OC [Example 28, N-((1H-imidazol-2-yl)methyl)-2-(4-(6,7-dimethoxyquinoline-4-yloxy)phenylamino)nicotinamide]
29.3 nM | COc1ccc2c(Oc3ccc(Nc4nccnc4C(=O)Nc4ccccc4)cc3F)ccnc2c1 [Example 36, 3-(3-fluoro-4-(7-methoxyquinolin-4-yloxy)phenylamino)-N-phenylpyrazine-2-carboxamide]
196 nM | COc1cc2nccc(Oc3ccc(Nc4ncccc4C(=O)Nc4ncco4)cc3)c2cc1OC [Example 29, 2-(4-(6,7-dimethoxyquinoline-4-yloxy)phenylamino)-N-(oxazol-2-yl)nicotinamide]
0.2 nM | CSc1ncc(C(=O)Nc2ccccc2)c(Nc2ccc(Oc3ccnc(NC(=O)N4CCCC4)c3)c(F)c2)n1 [Example 30, 4-(3-fluoro-4-(2-(pyrrolidine-1-carboxamido)pyridin-4-yloxy)phenylamino)-2-(methylthio)-N-phenylpyrimidin-5-carboxamide]
